Measurements taken from the supplement of paper PMC10307832.

Assays:
Experiment in all cases: relative viability (nuclei count vs DMSO), 5 days (fraction); higher = more cells survive
[1] = compound: CC1=CC(=NN1)NC2=CC(=NC(=N2)/C=C/C3=CC=CC=C3)N4CCN(CC4)C + CC(=O)Nc1cccc(-n2c(=O)n(C3CC3)c(=O)c3c(Nc4ccc(I)cc4F)n(C)c(=O)c(C)c32)c1 [Trametinib] (partner 0.02 µM)
Method in brief: (§1)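 Dosing by pin tool came one day after lung cancer cell lines were seeded in 1536-well plates, using either one drug or a fixed anchor-drug dose plus five library-drug doses (not always all listed) in √10 steps. After 5 days, nuclei were counted on 4× images. Relative viability is treated-well nuclei count divided by vehicle-well nuclei count, and values are medians of duplicate plates.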

Obatoclax + Alpelisib = compound: COC1=CC(c2cc3ccccc3[nH]2)=N/C1=C\c1[nH]c(C)cc1C [Obatoclax] + Cc1nc(NC(=O)N2CCC[C@H]2C(N)=O)sc1-c1ccnc(C(C)(C)C(F)(F)F)c1 [Alpelisib] (partner 2 µM)
Method in brief: as §1

[2] = compound: CC1=CC(=NN1)NC2=CC(=NC(=N2)/C=C/C3=CC=CC=C3)N4CCN(CC4)C + CS(=O)(=O)CCNCc1ccc(-c2ccc3ncnc(Nc4ccc(OCc5cccc(F)c5)c(Cl)c4)c3c2)o1 [Lapatinib] (partner 2 µM)
Method in brief: as §1

Bortezomib + Decitabine = compound: CC(C)C[C@H](NC(=O)[C@H](Cc1ccccc1)NC(=O)c1cnccn1)B(O)O [Bortezomib] + Nc1ncn([C@H]2C[C@H](O)[C@@H](CO)O2)c(=O)n1 [Decitabine] (partner 2 µM)
Method in brief: as §1

How did the relative viability ([1]; first compound 0.08 µM) turn out when NCI-H650 was run?
Its relative viability is 0.891.

And the relative viability ([1]; first compound 0.253 µM)?
The relative viability was 0.706.

What about the relative viability ([1]; first compound 0.8 µM) of the same cell line?
Its relative viability is 0.907.

And the relative viability ([1]; first compound 2.53 µM)?
The relative viability was 0.627.

And the relative viability ([1]; first compound 8 µM)?
Its relative viability is 0.166.

What about the relative viability (Obatoclax + Alpelisib; first compound 0.01 µM) of the same cell line?
The relative viability was 0.975.

What about the relative viability (Obatoclax + Alpelisib; first compound 0.03162 µM) of the same cell line?
The relative viability was 1.1.

What about the relative viability (Obatoclax + Alpelisib; first compound 0.1 µM) of the same cell line?
Its relative viability is 0.811.

And the relative viability (Obatoclax + Alpelisib; first compound 0.3162 µM)?
Its relative viability is 0.693.

And the relative viability (Obatoclax + Alpelisib; first compound 1 µM)?
Its relative viability is 0.446.

What about the relative viability ([2]; first compound 0.08 µM) of the same cell line?
Its relative viability is 0.804.

And the relative viability ([2]; first compound 0.253 µM)?
The relative viability was 1.15.

And the relative viability ([2]; first compound 0.8 µM)?
Its relative viability is 0.839.

What about the relative viability ([2]; first compound 2.53 µM) of the same cell line?
Its relative viability is 0.378.

What about the relative viability ([2]; first compound 8 µM) of the same cell line?
The relative viability was 0.271.

And the relative viability (Bortezomib + Decitabine; first compound 0.0002 µM)?
Its relative viability is 0.332.

What about the relative viability (Bortezomib + Decitabine; first compound 0.000632 µM) of the same cell line?
The relative viability was 0.347.

What about the relative viability (Bortezomib + Decitabine; first compound 0.002 µM) of the same cell line?
The relative viability was 0.286.

What about the relative viability (Bortezomib + Decitabine; first compound 0.006325 µM) of the same cell line?
The relative viability was 0.216.

What about the relative viability (Bortezomib + Decitabine; first compound 0.02 µM) of the same cell line?
Its relative viability is 0.147.
